This passage reports IC50 results from patent publication US20230047816A1 (priority 2018, published 2023).

SMILES strings stand for the structures.

The target of the assay is Recombinant full length human PFKFB3 (Homo sapiens, UniProt Q16875). Description: PFKFB3 kinase activity assay (ADP production, ADP-Glo). (In ADP-Glo the light output rises with the ADP produced.)
Chain of Recombinant full length human PFKFB3 (Q16875 whole entry): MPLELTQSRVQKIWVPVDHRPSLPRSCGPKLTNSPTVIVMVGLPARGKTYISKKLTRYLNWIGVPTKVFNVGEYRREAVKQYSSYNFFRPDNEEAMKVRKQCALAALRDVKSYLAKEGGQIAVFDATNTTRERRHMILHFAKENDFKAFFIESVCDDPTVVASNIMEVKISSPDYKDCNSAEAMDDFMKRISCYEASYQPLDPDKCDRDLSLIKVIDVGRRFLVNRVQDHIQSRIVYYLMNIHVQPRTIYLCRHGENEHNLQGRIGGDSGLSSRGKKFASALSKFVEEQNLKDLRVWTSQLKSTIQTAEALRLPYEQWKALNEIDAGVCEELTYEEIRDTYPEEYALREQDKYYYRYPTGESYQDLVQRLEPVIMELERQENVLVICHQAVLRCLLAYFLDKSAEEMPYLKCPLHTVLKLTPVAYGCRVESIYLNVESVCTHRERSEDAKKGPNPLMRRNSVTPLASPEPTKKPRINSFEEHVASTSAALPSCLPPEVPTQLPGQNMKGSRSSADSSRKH
Method: Recombinant full length human PFKFB3 (or PFKFB4) protein purified from Sf9 baculoviral system was acquired from SignalChem (Cat. #P323-30G or P324-30G). ATP, Fructose-6-Phosphate and other chemicals were from Sigma-Aldrich. The kinase activity of the PFKFB3 (PFKFB4) protein was detected by measuring production of ADP from ATP in the presence of the Fructose-6-Phosphate substrate. The kinase reactions were assembled in 384 well plates in a total volume of 25 μL. Test compounds were serially diluted in DMSO. Reactions were set up by first mixing test compounds with enzyme and pre-incubating for 15 min. The ATP and Fructose-6-Phosphate substrates were next added to initiate the kinase reactions.
The compounds of invention listed below in this example were tested at various concentrations (which also added 1% DMSO from compounds, to the final solution) as described below. The kinase reactions were allowed to proceed for 1 h at room temperature. Aliquots of the reaction mixtures (5 μL) were transferred to fresh white 384 well plates and mixed with 5 μL of the ADP-Glo reagent (Promega), followed by incubation for 30 min. The luminescent Kinase Detection reagent was added (10 μL) and, following additional incubation for 15 min, the plates were read on luminescence plate reader (Analyst HT). Positive (100%-inhibition) and negative (0%-inhibition) control samples were assembled in each assay plate and were used to calculate percent inhibition values of test compounds. All experiments were performed in duplicate.
Broadly, the IC50 is the midpoint of a concentration-inhibition curve. On to `CC(C)OC(=O)c1ccc(-c2ccc(F)c(F)c2)cc1N1Cc2ccc(C(=O)NS(C)(=O)=O)cc2C1=O` [Compound 125, 3′,4′-Difluoro-3-(6-methanesulfonylaminocarbonyl-1-oxo-1,3-dihydro-isoindol-2-yl)-biphenyl-4-carboxylic acid isopropyl ester], for which the IC50 is less than 20 µM.

`O=C(O)c1ccc2c(c1)C(=O)N(c1cc(-c3ccc(F)c(F)c3)ccc1C(=O)O)C2` [Compound 126, 2-(4-Carboxy-3′,4′-difluoro-biphenyl-3-yl)-3-oxo-2,3-dihydro-1H-isoindole-5-carboxylic acid]: the 50% inhibitory concentration (IC50) was less than 20 µM. For the compound `COC(=O)c1ccc2c(c1)C(=O)N(c1cc(-c3ccc(F)c(F)c3)ccc1C(=O)OC)C2` [Compound 127, 2-(3′,4′-Difluoro-4-methoxycarbonylbiphenyl-3-yl)-3-oxo-2,3-dihydro-1H-isoindole-5-carboxylic acid methyl ester], the IC50 is less than 20 µM. Turning to `CCCCOC(=O)c1ccc2c(c1)C(=O)N(c1cc(-c3ccc(F)c(F)c3)ccc1C(=O)O)C2` [Compound 128, 2-(4-Carboxy-3′,4′-difluoro-biphenyl-3-yl)-3-oxo-2,3-dihydro-1H-isoindole-5-carboxylic acid butyl ester], the IC50 lay in the range of 5 to 20 µM. `CN(C)CCOC(=O)c1ccc2c(c1)C(=O)N(c1cc(-c3ccc(F)c(F)c3)ccc1C(=O)O)C2` [Compound 129, 2-(4-Carboxy-3′,4′-difluorobiphenyl-3-yl)-3-oxo-2,3-dihydro-1H-isoindole-5-carboxylic acid 2-dimethylamino-ethyl ester]: the IC50 is less than 20 µM. In the case of `CC(=O)Nc1ccc2c(c1)C(=O)N(c1cc(-c3ccc(F)c(F)c3)ccc1C(=O)O)C2` [Compound 130, 3-(6-Acetylamino-1-oxo-1,3-dihydroisoindol-2-yl)-3′,4′-difluoro-biphenyl-4-carboxylic Acid], the IC50 is less than 20 µM. With `CS(=O)(=O)Nc1ccc2c(c1)C(=O)N(c1cc(-c3ccc(F)c(F)c3)ccc1C(=O)O)C2` [Compound 131, 3′,4′-Difluoro-3-(6-methanesulfonylamino-1-oxo-1,3-dihydro-isoindol-2-yl)-biphenyl-4-carboxylic Acid], the IC50 is less than 20 µM. For the compound `Cc1ccc(S(=O)(=O)Nc2ccc3c(c2)C(=O)N(c2cc(-c4ccc(F)c(F)c4)ccc2C(=O)O)C3)cc1` [Compound 132, 3′,4′-Difluoro-3-[1-oxo-6-(toluene-4-sulfonylamino)-1,3-dihydro-isoindol-2-yl]-biphenyl-4-carboxylic acid], the IC50 is 5 to 20 µM. `N#Cc1c(N2C(=O)c3ccc(C(=O)O)cc3C2=O)sc(-c2ccccc2)c1-c1ccccc1` [Compound 133, 2-(3-Cyano-4,5-diphenylthiophen-2-yl)-1,3-dioxo-2,3-dihydro-1H-isoindole-5-carboxylic acid]: the concentration for half-maximal inhibition (IC50) is less than 0.5 µM.

As for `O=C(NS(=O)(=O)c1ccccc1)c1ccc2c(c1)C(=O)N(c1ccc(-c3ccccc3)cc1-c1nnn[nH]1)C2=O` [Compound 135, N-(Benzenesulfonyl)-2-(3-(1H-tetrazol-5-yl)-[1,1′-biphenyl]-4-yl)-1,3-dioxo-2,3-dihydro-1H-isoindole-5-carboxamide], the IC50 was 5 to 20 µM. In the case of `COc1ccc(-c2c(C)sc(N3C(=O)c4ccc(C(=O)N[C@@H](Cc5ccc(O)cc5)C(=O)O)cc4C3=O)c2C#N)cc1` [Compound 136, (2S)-2-({2-[3-Cyano-4-(4-methoxyphenyl)-5-methyl-thiophen-2-yl]-1,3-dioxo-2,3-dihydro-1H-isoindole-5-carbonyl}-amino)-3-(4-hydroxyphenyl)propanoic acid] it was 2 to 5 µM; in that of `COc1ccc(-c2c(C)sc(N3C(=O)c4ccc(C(=O)N[C@@H](Cc5ccccc5)C(=O)O)cc4C3=O)c2C#N)cc1` [Compound 137, (2S)-2-({2-[3-Cyano-4-(4-methoxyphenyl)-5-methyl-thiophen-2-yl]-1,3-dioxo-2,3-dihydro-1H-isoindole-5-carbonyl}-amino)-3-phenylpropanoic acid], 0.5 to 2 µM.

As for `O=C(O)c1ccc2c(c1)C(=O)N(c1cc(-c3ccc(F)c(F)c3F)ccc1C(=O)O)C2=O` [Compound 139, 2-(4-Carboxy-2′,3′,4′-trifluoro[1,1′-biphenyl]-3-yl)-1,3-dioxo-2,3-dihydro-1H-isoindole-5-carboxylic Acid], the 50% inhibitory concentration (IC50) was less than 0.5 µM. As for `O=C(O)c1ccc2c(c1)C(=O)N(c1cc(-c3cc(F)c(F)cc3F)ccc1C(=O)O)C2=O` [Compound 140, 2-(4-Carboxy-2′,4′,5′-trifluoro[1,1′-biphenyl]-3-yl)-1,3-dioxo-2,3-dihydro-1H-isoindole-5-carboxylic Acid], the IC50 is less than 0.5 µM. For the compound `Cc1ccc(-c2ccc(C(=O)O)c(N3C(=O)c4ccc(C(=O)O)cc4C3=O)c2)cc1` [Compound 141, 2-(4-Carboxy-4′-methyl[1,1′-biphenyl]-3-yl)-1,3-dioxo-2,3-dihydro-1H-isoindole-5-carboxylic acid], the 50% inhibitory concentration (IC50) was less than 0.5 µM. With `O=C(O)c1ccc2c(c1)C(=O)N(c1cc(-c3ccc(Cl)cc3Cl)ccc1C(=O)O)C2=O` [Compound 142, 2-(4-Carboxy-2′,4′-dichloro[1,1′-biphenyl]-3-yl)-1,3-dioxo-2,3-dihydro-1H-isoindole-5-carboxylic acid] the figure was less than 0.5 µM; with `COc1ccc(-c2ccc(C(=O)O)c(N3C(=O)c4ccc(C(=O)O)cc4C3=O)c2)cc1F` [Compound 144, 2-(4-Carboxy-3′-fluoro-4′-methoxy[1,1′-biphenyl]-3-yl)-1,3-dioxo-2,3-dihydro-1H-isoindole-5-carboxylic acid], less than 0.5 µM. For the compound `O=C(O)c1ccc(C(=O)O)c(C(=O)Nc2cc(-c3ccc(F)cc3)ccc2C(=O)O)c1` [Example 1, 2-({4-carboxy-4′-fluoro-[1,1′-biphenyl]-3-yl}carbamoyl)benzene-1,4-dicarboxylic acid], the IC50 lay within 0.5 to 2 µM.

As for `COc1cc(N2C(=O)c3ccc(C(=O)O)cc3C2=O)ccc1-c1ccccc1` [Example 1], the IC50 fell in the range of 5 to 20 µM. For `O=C(O)c1ccc2c(c1)C(=O)N(c1ccc(-c3ccccc3)cc1-c1nnn[nH]1)C2=O` [Example 2, 1,3-Dioxo-2-[3-(1H-tetrazol-5-yl)-1,1′-biphenyl-4-yl]-2,3-dihydro-1H-isoindole-5-carboxylic Acid], the IC50 is less than 0.5 µM.

For the compound `O=C(O)c1ccc2c(c1)C(=O)N(c1cc(-c3ccccc3)ccc1O)C2=O` [Example 3, 2-(4-Hydroxy[1,1′-biphenyl]-3-yl)-1,3-dioxo-2,3-dihydro-1H-isoindole-5-carboxylic Acid], the IC50 was in the range of 0.5 to 2 µM. For the compound `Nc1cc(C(=O)O)ccc1C(=O)Nc1cc(-c2ccccc2)ccc1C(=O)O` [Example 4, 3-(2-amino-4-carboxybenzamido)-[1,1′-biphenyl]-4-carboxylic acid], the IC50 was less than 20 µM. Turning to `O=C(O)c1ccc2c(c1)C(=O)N(c1ccc(-c3ccccc3)cc1CO)C2=O` [Example 4], the IC50 is 2 to 5 µM. As to `O=C(O)c1ccc(C(=O)Nc2cc(-c3ccccc3)ccc2C(=O)O)c(C(=O)O)c1` [Example 5, 4-({4-carboxy-[1,1′-biphenyl]-3-yl}carbamoyl)benzene-1,3-dicarboxylic acid], the IC50 lay in the range of 0.5 to 2 µM. In the case of `O=C(O)c1cc(-c2cnn[nH]2)ccc1CNc1cc(-c2ccc(F)c(F)c2)ccc1C(=O)O` [Example 6, 3-({[2-carboxy-4-(2H-1,2,3-triazol-4-yl)phenyl]methyl}amino)-3′,4′-difluoro-[1,1′-biphenyl]-4-carboxylic acid], the concentration for half-maximal inhibition (IC50) was less than 0.5 µM.

For `COc1ccc(-c2c(C)sc(N3C(=O)c4ccc(C(=O)O)cc4C3=O)c2C#N)cc1` [Example 6], the IC50 is less than 0.5 µM.

For `O=C(O)c1ccc(-c2cnn[nH]2)cc1CNc1cc(-c2ccc(F)c(F)c2)ccc1C(=O)O` [Example 7, 3-({[2-carboxy-5-(2H-1,2,3-triazol-4-yl)phenyl]methyl}amino)-3′,4′-difluoro-[1,1′-biphenyl]-4-carboxylic acid], the IC50 lay within 5 to 20 µM.

On to `COc1ccc(-c2c(C)sc(NC(=O)c3ccc(-c4c[nH]nn4)cc3C(N)=O)c2C#N)cc1` [Example 8, N1-[3-cyano-4-(4-methoxyphenyl)-5-methylthiophen-2-yl]-4-(2H-1,2,3-triazol-4-yl)benzene-1,2-dicarboxamide], for which the IC50 lay in the range of 5 to 20 µM. As to `COC(=O)c1cc(-c2c[nH]nn2)ccc1C(=O)Nc1sc(C)c(-c2ccc(OC)cc2)c1C#N` [Example 9, methyl 2-{[3-cyano-4-(4-methoxyphenyl)-5-methylthiophen-2-yl]carbamoyl}-5-(2H-1,2,3-triazol-4-yl)benzoate], the IC50 was 5 to 20 µM. As to `N#Cc1c(NC(=O)c2ccc(C(=O)O)cc2C(N)=O)sc(-c2ccccc2)c1-c1ccccc1` [Example 11, 3-carbamoyl-4-[(3-cyano-4,5-diphenylthiophen-2-yl)carbamoyl]benzoic acid], the IC50 is less than 0.5 µM. As for `O=C(O)c1ccc2c(c1)C(=O)N(c1cc(-c3ccccc3)ccc1CO)C2=O` [Example 11], the IC50 was 5 to 20 µM.

Turning to `COC(=O)c1cc(-c2ccccc2)ccc1N1C(=O)c2ccc(C(=O)O)cc2C1=O` [Example 12, 2-(3-Methoxycarbonylbiphenyl-4-yl)-1,3-dioxo-2,3-dihydro-1H-isoindole-5-carboxylic acid], the IC50 was in the range of 2 to 5 µM. As for `COc1ccc(-c2c(C)sc(N3C(=O)c4ccc(C(=O)NS(=O)(=O)c5ccccc5)cc4C3=O)c2C#N)cc1` [Example 13, N-{2-[3-Cyano-4-(4-methoxyphenyl)-5-methylthiophen-2-yl]-1,3-dioxo-2,3-dihydro-1H-isoindole-5-carbonyl}-benzenesulfonamide], the IC50 lay in the range of 5 to 20 µM.

With `COc1ccc(-c2c(C)sc(NC(=O)c3ccc(C(=O)O)cc3C(=O)NCCN(C)C)c2C#N)cc1` [Example 14, 4-{[3-cyano-4-(4-methoxyphenyl)-5-methylthiophen-2-yl]carbamoyl}-3-{[2-(dimethylamino)ethyl]carbamoyl}benzoic acid], the half-inhibitory concentration (IC50) is less than 20 µM. Regarding `COc1ccc(-c2c(C)sc(N3C(=O)c4ccc(C(=O)NS(C)(=O)=O)cc4C3=O)c2C#N)cc1` [Example 14], the IC50 was 0.5 to 2 µM.
